This note sets out measurements from patent US6905852B1, “Herbicide-resistant protoporphyrinogen oxidase isolated from Nicotiana tabacum” (Nihon Nohyaku Co., Ltd., priority 1997, dated 2005).

Converted amounts (≈) assume the structure as drawn.

Experiment in all cases: MIC on MS agar medium, cross-resistance to herbicides
Common to all, as to type: cell-based, Nicotiana tabacum

One assay has as its system Sensitive strain. The note with it: sensitive cell line. An excerpt:
(§1) Further, cross-resistance of a resistant strain tolerant to herbicides with various modes of action was examined. Sensitivity to fomesafen (trade mark: FLEX) and oxadiazon (trade mark: RONSTAR), which are photobleaching herbicide and accumulate protoporphyrin IX; pyrazoxyfen (trademark: PAICER) which is a chlorophyll synthesis inhibitor and causes bleaching; DPX-84 and bialaphos (trademark: BASTA) and glyphosate (trademark: ROUNDUP) which are an inhibitor of the amino acid synthesis; butachlor (trademark: MACHETE) which is a protein synthesis inhibitor; propanil (trademark: STAM) which is an inhibitor of light synthesis photochemical system II and paraquat (trademark: PREEGLOX) which is an inhibitor of photosystem I and produces an active oxygen was compared. Into MS agar medium containing each herbicides, each resistant strain was transplanted and minimum inhibition concentration (MIC) was measured. […] From the above results, ETR-056 was thought to have resistance to an active oxygen caused by overproduction of superoxide dismutase, and ETR-253 was thought to have resistance to many herbicides caused by decreasing of a membrane permeability, and ETR-245 was thought to have resistance caused by mutation of a target enzyme or overproduction of a target enzyme.
(§2) MIC of compound A to the sensitive cell lines, ETR-056, ETR-245 and ETR-253 were measured.

A further assay deals with ETR-056.
Source text: as §1, §2

The test system of the next assay is ETR-253.
Source text: as §1, §2

The next assay relates to ETR-245.
Source text: as §1, §2

For the compound `CCOC(=O)COc1cc(-c2nn(C)c(OC(F)F)c2Cl)c(F)cc1Cl` [Compound A, ethyl 2-chloro-5-(4-chloro-5-difluoromethoxy-1-methyl-1H-pyrazol-3-yl)-4-fluorophenoxyacetate], the MIC in the assay on Sensitive strain is 5 nM (≈ 2.07 ng/mL); in the assay with ETR-056, “over 2,400 nM”; in the assay on ETR-253 it was “over 2,400 nM”; in the assay on ETR-245 it was “over 2,400 nM”.
